Tests used:
Spleen cells = assay: Cytokine modulation in spleen cells: splenocyte IFN-γ production; format: cell-based, BALB/c mice; conditions: result in words
Protocol: BALB/c male and female mice bred and maintained at the University of Strathclyde under conventional conditions were used at varying age.
The mouse spleen was removed aseptically and placed in a sterile petri dish containing 5 mls of complete medium (RPMI, 1% L-Glutamine, 1% Penicillin/Streptomycin and 10% foetal calf serum). Cells suspensions were prepared by using the end of a syringe and grinding the spleen through a wire mesh. The cell suspension was then centrifuged at 1000 rpm for 5 minutes. To remove the erythrocytes, the cell pellet was resuspended in Boyle's solution (Tris 0.17M & Ammonium Chloride 0.16M) and centrifuged again for 5 minutes. The pellet was then washed in medium a further two times, then resuspended in 3 mls medium. A cell count was then carried out.
All spleen cell experiments were carried out in 96-well tissue culture plates. […] Unstimulated wells contained 100 μl of cells and 100 μl of medium. The stimulated wells contained 100 μl of cells plus 50 μl of LPS at 1 μg/ml or 50 μl anti-CD3 at 0.5 μg/ml and 50 μl of medium. The remaining wells contained 100 μl cells, 50 μl of MNLP compound and either 50 μl of anti-CD3 or medium alone.
The appropriate Mabs and standards were used according to the protocol described for IL-12 (described in Example 1, above).

Dendritic cells = assay: Induction of IL-12 secretion in dendritic cells (ELISA); format: cell-based, BALB/c mice; conditions: dendritic cells; compounds 50 μg/ml and 20 μg/ml, 24 hrs (or 48 hrs)
Protocol: BALB/c male and female mice bred and maintained at the University of Strathclyde under conventional conditions were used at 8 weeks old.
Bone marrow was obtained from the femurs of mice. The femurs were washed in 70% ethanol and placed in a clean petri dish. Dendritic cell (DC) medium (2.5% granulocyte-macrophage colony-stimulating factor (GM-CSF), 10% […] foetal calf serum, 1% L-glutamine, 1% Penicillin/Streptomycin in RPMI-1640 medium) was injected into the bone marrow of the femur by a pumping action and the cells and medium were collected. 1 ml of the cells in medium was added to a 75 cm^2 flask with 15 mls of DC medium. The flasks were then incubated at 37° C., 5% CO2 to allow DC growth and development. After 5 days an additional 10 mls of DC medium was added.
After 10 days of incubation of bone marrow with GM-CSF, the dendritic cells were harvested. This process was carried out in a tissue culture hood. The contents of the flasks were poured into centrifuge tubes to ensure collection of floating DCs. Approximately 10 mls of cooled phosphate buffered saline (PBS) was added to each empty flask, the flasks gently agitated and the contents collected. […] The collected contents of the flasks were centrifuged for 5 minutes at 200 g and the pellet resuspended in 2 mls of DC medium without GM-CSF. A cell count was then carried out.
Cells were counted using a haemocytometer. Approximately 20 μl of the resuspended cells was pipetted into the chamber of the haemocytometer, the cells were adjusted to the correct cell concentration (approx. 5×10^4, and not less than 1×10^4, per well) and then plated out for assay.
The plates were incubated overnight at 37° C. with 5% CO2 and allowed to settle (harvesting stimulates them). The next day the compounds (50 μg/ml and 20 μg/ml) and controls were added then again incubated at 37° C. with 5% CO2 for 24 hrs (or 48 hrs). Harvesting and addition of the compounds was all done in a hood. The plates were then frozen to kill the cells and once defrosted the supernatant analysed as described below.
Using an enzyme linked immunosorbent assay (ELISA) IL-12 concentration in the supernatants was measured. All reagents used in this assay were from PharMingen. A 96-well flat-bottomed ELISA plate was coated with purified rat anti-mouse IL-12 (p40/p70) MAb (Cat no. 554478) at 2 μg/ml diluted in PBS pH 9.0 at 50 μl/well. The plate was then covered in cling film and incubated at 4° C. Following incubation the plate was washed 3 times in washing buffer and dried. 200 μl of blocking buffer (10% foetal calf serum in PBS pH 7.0) was added to each well then covered in cling film and incubated at 37° C. for 45 minutes. The plate was washed 3 times and dried. Recombinant mouse Il-12 standard was added at 30 μl in duplicate wells, starting at 10 ng/ml then 5, 2.5, 1.25, 0.625, 0.31, 0.156, 0.078, 0.039, 0.020, 0.010, 0.005 ng/ml. Standards were diluted in blocking buffer. The supernatant samples were added in at 50 μl/well. The plate was then covered in cling film and incubated for 2 hours at 37° C. The plate was then washed 4 times, dried and the secondary antibody added.
Biotin labelled anti-mouse IL-12 (p40/p70) MAb (Cat no. 18482D) at 1 μg/ml (diluted in blocking buffer) was added to each well at a volume of 100 μl/well. The plate was covered in cling film and incubated at 37° C. for 1 hour. The plate was then washed 5 times, dried and the conjugate added. Streptavidin-AKP (Cat no. 13043E) at 100 μl/well was added at a dilution of 1/2000 in blocking buffer followed by incubation under cling film at 37° C. for 45 minutes.
The plate was finally washed 6 times, dried and the substrate added. pNPP (Sigma) in glycine buffer at 1 mg/ml was added at 100 μl/well. The plate was then covered in tinfoil, incubated at 37° C. and checked every 30 minutes for a colour change.
The plate was then read at 405 nm using a SPECTRAmax 190 spectrometer.

[1] = system: N-acetyl-β-D-glucosaminidase; assay: Glycosidase inhibition, N-acetyl-β-D-glucosaminidase; format: biochemical, Bovine kidney; conditions: 1 mg/ml
Protocol: (§1) All enzymes were purchased from Sigma, as were the appropriate p-nitrophenyl substrates. Assays were carried out in microtitre plates. Enzymes were assayed in 0.1 M citric acid/0.2M di-sodium hydrogen phosphate (McIlvaine) buffers at the optimum pH for the enzyme. All assays were carried out at 20° C. For screening assays the incubation assay consisted of 10 μl of enzyme solution, 10 μl of inhibitor solution (made up in water) and 50 μl of the appropriate 5 mM p-nitrophenyl substrate (3.57 mM final conc.) made up in McIlvaine buffer at the optimum pH for the enzyme.
(§2) The reactions were stopped with 0.4M glycine (pH 10.4) during the exponential phase of the reaction, which was determined at the beginning of the assay using blanks with water, which were incubated for a range of time periods to measure the reaction rate using 5 mM substrate solution. Endpoint absorbances were read at 405 nm with a Biorad microtitre plate reader (Benchmark). Water was substituted for the inhibitors in the blanks.

β-D-glucosidase = assay: Glycosidase inhibition, β-D-glucosidase; format: biochemical, Almonds (Prunus sp.); conditions: 1 mg/ml
Protocol: as §1, §2

Naringinase = assay: Glycosidase inhibition, Naringinase; format: biochemical, Penecillium decumbens; conditions: 1 mg/ml
Protocol: as §1, §2

B16-F10 tumour cells = assay: Control of lung metastasis in mice; format: in vivo, Mice (C57/bl6); conditions: 50 mg/kg s/c on days 2 and 4; lungs on day 14
Protocol: Mice (C57/bl6 under i/p ketamine anaesthesia) were challenged i/v (tail vein) with 5×10^4 B16-F10 tumour cells in a final volume of 100 μl per mouse on day 0. Test compounds (50 mg/kg in 200 μl sterile non-pyrogenic saline) were administered s/c (right flank) on days 2 and 4. On day 14 the mice were sacrifices and the lungs dissected and stained in Indian ink solution (150 ml bidistilled water, 30 ml India Ink, 4 drops NH4OH) for 10 minutes then fixed for at least 24 hr in Fakete's solution (90 ml 37% formaldehyde, 900 ml 70% EtOH and 45 ml glacial acetic acid). The metastases in the stained and fixed lungs could then be visualized, counted and photographed.

α-D-glucosidase = assay: Glycosidase inhibition, α-D-glucosidase (Bacillus); format: biochemical, Bacillus stearothermophilus; conditions: 1 mg/ml
Protocol: as §1, §2

β-D-galactosidase = assay: Glycosidase inhibition, β-D-galactosidase; format: biochemical, Bovine liver; conditions: 1 mg/ml; second galactosidase line
Protocol: as §1, §2

glycosidase = conditions: see U.S. Pat. No. 5,075,457; cited from earlier work

| Compound | IL-12 RELEASE (Dendritic cells) | % inhibition glucosidase (β-D-glucosidase) [%] | % inhibition Naringinase (Naringinase) [%] | % inhibition gluc (Bacillus) (α-D-glucosidase) [%] | other results |
| --- | --- | --- | --- | --- | --- |
| OC[C@H]1NC[C@H](O)[C@@H](O)[C@@H]1O [1-Deoxynojirimycin (DNJ) (21), 1-Deoxynojirimycin] | No |  |  |  | IFN-γ secretion/production in splenocytes (Spleen cells): inhibited IFN-γ secretion/production in splenocytes |
| OC[C@H]1[C@@H](O)[C@H](O)[C@H]2[C@@H](O)CCN21 [3,7a-diepialexine (23), 3,7a-diepialexine] | No |  |  |  |  |
| OC[C@H]1[C@@H](O)[C@H](O)[C@H]2[C@H](O)[C@@H](O)CN21 [3-epi-casuarine (14), 3-epi-casuarine] | Yes | 56 | 21 | 12 | % inhibition N-acetyl-β-gluc [1]: −1%; Metastatic morphology (B16-F10 tumour cells): Metastasis restricted to apical tip of lung; % inhibition galactosidase (β-D-galactosidase): 6% |
| OC[C@@H]1[C@@H](O)[C@H](O)[C@H]2[C@@H](O)[C@@H](O)CN21 [7-epi-casuarine (11), 7-epi-casuarine] | Yes | 30 | −4 | 5 |  |
| OC[C@@H]1[C@@H](O)[C@H](O)[C@H]2[C@@H](O)CCN21 [7-epialexine (22), 7-epialexine] | No |  |  |  |  |
| O[C@H]1[C@H]2[C@@H](O)CCN2C[C@H]1O [7S-epimer (6)] |  |  |  |  | glycosidase inhibitory activity relative to swainsonine (glycosidase): much weaker inhibitory activity relative to swainsonine itself |

— patent US8557859B2, “Immunomodulatory compositions” (Summit (Wales) Limited, priority 2003, dated 2013)
